Where “and” joins values, the source holds several entries; their conditions need not be identical. Identical values can stand only once.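 Where inhibition never reached the appropriate level, the endpoint shown equals the highest concentration tested. Otherwise, values were interpolated linearly from a five-concentration, 48-hour dose response in 96-well plates. The concentration for 50% growth inhibition is given as GI50. The concentration for full growth arrest is given as TGI.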
Columns and labels:
Experiment in all cases: DTP human tumour cell line panel, 48 h
[1] = system: ACHN renal
[2] = system: HCT-15 colon
[3] = system: MDA-MB-231 breast
[4] = system: OVCAR-3 ovarian
[5] = system: OVCAR-4 ovarian
[6] = system: SK-MEL-5 melanoma
[7] = system: T-47D breast
[8] = system: TK-10 renal
[9] = system: U251 CNS
[10] = system: UACC-257 melanoma

Structure (SMILES) | GI50 [1] | TGI [1] | GI50 [2] | TGI [2] | GI50 [3] | TGI [3] | GI50 [4] | TGI [4] | GI50 [5] | TGI [5] | GI50 [6] | TGI [6] | GI50 [7] | TGI [7] | GI50 [8] | TGI [8] | GI50 [9] | TGI [9] | GI50 [10] | TGI [10]
NCCSC(C[N+](=O)[O-])c1ccccc1Cl (stereo unspecified) | 9.85 µM | 22.1 µM | 2.21 µM | 5.97 µM | 12 µM | 25.8 µM | 1.88 µM | 3.5 µM | 12.1 µM | 30.1 µM | 3.03 µM | 10.1 µM | 2.23 µM | 9.09 µM | 5.59 µM | 19 µM | 1.85 µM | 3.81 µM | 1.91 µM | 4.31 µM
COc1cc(NC(=O)c2cc(O)c(C/C=C(\C)CCC=C(C)C)c(O)c2)cc2c1O[C@]1(C)CC[C@@H](O)C(C)(C)[C@H]1C2 | 2.21 µM | 10.1 µM | 2.09 µM | 7.53 µM | 1.11 µM | 5.04 µM | 1.88 µM | 5.49 µM | 2.57 µM | 12.7 µM | 1.34 µM | 2.9 µM | 1.63 µM | 6.95 µM | 3.42 µM | 13.7 µM | 0.724 µM | 5.33 µM | 2.82 µM | 14.3 µM
O=C(Cn1c2ccccc2c2ccncc21)N/N=C\c1ccc2ccccc2c1 | 19.3 µM | 48.5 µM | 14.7 µM | > 100 µM | 14.5 µM | 32.9 µM | 12.2 µM | 36.5 µM | 15.4 µM | 80.8 µM | 23 µM | > 100 µM | 25.2 µM | > 100 µM | 27.3 µM | 54.7 µM | 14.5 µM | 29.5 µM | 42.1 µM | > 100 µM
CN(C)N=Nc1nn(C(=O)Nc2ccc(Cc3ccccc3)cc2)c2ccccc12 | 0.282 µM | > 100 µM | 0.396 µM | > 100 µM | 1.37 µM | > 100 µM | 11.8 µM | > 100 µM | – | > 100 µM | 0.122 µM | 1.09 µM | 0.0719 µM | > 100 µM | > 100 µM | > 100 µM | – | > 100 µM | 0.862 µM | > 100 µM
Nc1nc(Cl)nc2c1ncn2[C@@H]1O[C@H](COS(N)(=O)=O)[C@@H](O)[C@H]1O | 0.0257 µM and 0.0252 µM | 0.0778 µM and 0.0657 µM | 0.0272 µM and 0.0313 µM | 0.0881 µM and 0.168 µM | 0.00481 µM | 0.0294 µM and 0.0262 µM | 0.0282 µM | 0.0864 µM and 0.0714 µM | 0.00303 µM | 0.00929 µM and 0.0324 µM | 0.0168 µM and 0.0179 µM | 0.0313 µM and 0.033 µM | 0.0156 µM and 0.02 µM | 0.0656 µM and 0.0744 µM | 0.021 µM and 0.0211 µM | 0.0581 µM and 0.0654 µM | 0.0222 µM and 0.0231 µM | 0.0658 µM and 0.0663 µM | 0.0233 µM and 0.0242 µM | 0.0694 µM and 0.0685 µM
O=C(CN1C(=O)S/C(=C\C(Cl)=C\c2ccccc2)C1=O)NCCCn1ccnc1 | 1.99 µM | 5.22 µM | 1.95 µM | 7 µM | – | – | 1.76 µM | 3.25 µM | 1.86 µM | 4.39 µM | 1.68 µM | 3.06 µM | 2.8 µM | 17.2 µM | 2.3 µM | 4.53 µM | 2.54 µM | 8.01 µM | 2.63 µM | 10.2 µM
O=C1/C(=C\c2ccccc2)c2ccccc2N1/N=C\c1ccccc1 | – | > 100 µM | – | > 100 µM | – | – | – | > 100 µM | – | > 100 µM | – | > 100 µM | – | – | – | > 100 µM | – | > 100 µM | – | > 100 µM
COc1cc2c3cc1Oc1c(OC)c(OC)cc4c1C(Cc1ccc(cc1)Oc1cc(ccc1O)CC3N(C)CC2)N(C)CC4 (stereo unspecified) | 14.5 µM and 4.72 µM | 46.1 µM and 15.8 µM | 8.8 µM and 3.19 µM | 23.2 µM and 14.3 µM | – | 24.5 µM | – | 29.1 µM and 62.8 µM | – | 29.6 µM and 31.3 µM | 6.2 µM and 1.81 µM | 18.7 µM and 3.72 µM | – | 26.8 µM | – | 45 µM and 25.9 µM | – | 23.8 µM and 30.5 µM | 13.3 µM and 1.96 µM | 26.7 µM and 4.29 µM
O=c1[nH]nc(-c2ccccc2)c2c(-c3ccccc3)onc12 | 3.38 µM | > 100 µM | 0.554 µM | > 100 µM | 17.7 µM | > 100 µM | 0.358 µM | 1.44 µM | 2.4 µM | > 100 µM | 0.352 µM | – | 0.595 µM | > 46 µM | 0.999 µM | > 100 µM | 0.517 µM | > 100 µM | 6.7 µM | > 100 µM
COc1cc(-c2oc3c(OC)c(O)cc(O)c3c(=O)c2OC)ccc1O | – | > 71.5 µM | – | > 100 µM | – | > 100 µM | – | 22.3 µM | – | 87.7 µM | – | 20.4 µM | – | 18.2 µM | – | 69.6 µM | – | > 62.5 µM | – | > 94.2 µM
Cc1ccc(Nc2nc(C)c(C(/C=C/c3ccc4c(c3)OCO4)=N/Nc3ccc([N+](=O)[O-])cc3[N+](=O)[O-])s2)c([N+](=O)[O-])c1 | – | > 100 µM | – | > 100 µM | – | – | – | > 100 µM | – | > 100 µM | – | – | – | – | – | > 100 µM | – | > 100 µM | – | > 100 µM
Cc1cccc(N=C2NC(=O)C(CC(=O)Nc3ccccc3Cl)S2)c1 (stereo unspecified) | – | > 100 µM | – | > 100 µM | – | – | – | > 100 µM | – | > 100 µM | – | > 100 µM | – | – | – | > 100 µM | – | – | – | > 100 µM
O=c1[nH]cnc2c1ncn2CCCCO | – | > 100 µM | – | > 100 µM | – | – | – | > 100 µM | – | > 100 µM | – | > 100 µM | – | – | – | > 100 µM | – | – | – | > 100 µM
CCCCCCCCCCCCCCCCCc1nnc(N)o1 | – | > 100 µM | – | > 100 µM | – | – | – | > 100 µM | – | > 100 µM | – | – | – | – | – | > 100 µM | – | > 100 µM | – | > 100 µM
O=c1cc(-c2ccc(O)cc2)oc2cc(O)cc(O)c12 | – | 30.3 µM | – | > 100 µM | – | – | – | 91.9 µM | – | > 100 µM | – | 87.2 µM | – | – | – | > 100 µM | – | > 100 µM | – | 73.9 µM
O=c1[nH]c2c(c3ccccc13)CCc1ccccc1-2 | – | > 100 µM | – | > 100 µM | – | – | – | > 100 µM | – | > 100 µM | – | > 100 µM | – | – | – | > 100 µM | – | > 100 µM | – | > 100 µM
